Measured values from patent US20050209232A1, “Pyridazinone ureas as antagonists of alpha4 integrins” (priority 2004, published 2005).
pIC50: −log10 of the molar value.

Key:
α4β1 = target: T1, α4β1 (Homo sapiens, UniProt P05556+P13612); assay: Ramos Cell Adhesion Assay (α4β1 Mediated Adhesion/VCAM-1); type: cell-based; details: Ramos cells adhering to recombinant hVCAM-1
T1 construct: Ramos cells, (50 μL at 2×10^6/mL) labeled with 5 μM Calcein AM; endogenous in cells; host or cells: Ramos cells
Protocol: Ramos Cell Adhesion Assay (α4β1 Mediated Adhesion/VCAM-1)
Immulon 96 well plates (Dynex) were coated with 100 μL recombinant hVCAM-1 at 4.0 μg/mL in 0.05 M NaCO3 buffer pH 9.0 overnight at 4° C. (R&D Systems). Plates were washed 2 times in PBS with 1% BSA and blocked for 1 h@room temperature in this buffer. PBS was removed and compounds to be tested (50 μL) were added at 2× concentration. Ramos cells, (50 μL at 2×10^6/mL) labeled with 5 μM Calcein AM (Molecular Probes) for 1 h at 37° C., were added to each well and allowed to adhere for 1 h at room temperature. Plates were washed 4 × in PBS+1% BSA and cells were lysed for 15 minutes in 100 μL of 1 M Tris pH 8.0 with 1% SDS. The plate was read at 485 nm excitation and 530 nm emission.

human α4β7 integrin = target: T2, human α4β7 integrin (Homo sapiens, UniProt P13612+P26010); assay: α4β7-K562 Cell Adhesion Assay (α4β7 Mediated Adhesion/MAdCAM-1); type: cell-based; details: K562 cells expressing human α4β7 adhering to FLAG-hMAdCAM-1, 1 mM Mn2+
T2 construct: expressed in transfected cells; host or cells: K562 cells, stably transfected
T2 sequence (P13612 34-1032): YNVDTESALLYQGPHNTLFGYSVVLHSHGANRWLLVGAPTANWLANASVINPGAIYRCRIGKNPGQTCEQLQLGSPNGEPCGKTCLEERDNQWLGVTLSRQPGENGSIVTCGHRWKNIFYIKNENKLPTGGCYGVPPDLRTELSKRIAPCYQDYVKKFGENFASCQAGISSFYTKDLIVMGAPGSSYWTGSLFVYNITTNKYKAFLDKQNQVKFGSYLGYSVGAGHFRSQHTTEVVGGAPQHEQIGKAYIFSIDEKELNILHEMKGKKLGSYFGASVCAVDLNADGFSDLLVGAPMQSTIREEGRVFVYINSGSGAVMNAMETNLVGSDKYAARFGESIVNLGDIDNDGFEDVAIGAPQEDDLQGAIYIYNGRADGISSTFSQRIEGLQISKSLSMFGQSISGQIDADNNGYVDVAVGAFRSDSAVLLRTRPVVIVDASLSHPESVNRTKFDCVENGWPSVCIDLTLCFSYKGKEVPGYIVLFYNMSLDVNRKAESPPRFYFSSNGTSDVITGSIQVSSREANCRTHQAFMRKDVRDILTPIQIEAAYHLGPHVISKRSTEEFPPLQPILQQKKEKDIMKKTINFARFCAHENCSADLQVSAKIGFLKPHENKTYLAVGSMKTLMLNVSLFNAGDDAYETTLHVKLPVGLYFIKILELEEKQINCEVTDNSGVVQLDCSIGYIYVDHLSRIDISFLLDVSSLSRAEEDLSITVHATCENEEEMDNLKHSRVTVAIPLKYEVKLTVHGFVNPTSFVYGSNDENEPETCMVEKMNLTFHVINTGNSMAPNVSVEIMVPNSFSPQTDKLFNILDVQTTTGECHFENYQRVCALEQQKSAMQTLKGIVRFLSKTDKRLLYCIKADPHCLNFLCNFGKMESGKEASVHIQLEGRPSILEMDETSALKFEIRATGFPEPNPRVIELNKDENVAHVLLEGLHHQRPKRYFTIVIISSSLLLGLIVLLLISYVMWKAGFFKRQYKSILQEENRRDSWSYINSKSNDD
T2 sequence (P26010 20-798): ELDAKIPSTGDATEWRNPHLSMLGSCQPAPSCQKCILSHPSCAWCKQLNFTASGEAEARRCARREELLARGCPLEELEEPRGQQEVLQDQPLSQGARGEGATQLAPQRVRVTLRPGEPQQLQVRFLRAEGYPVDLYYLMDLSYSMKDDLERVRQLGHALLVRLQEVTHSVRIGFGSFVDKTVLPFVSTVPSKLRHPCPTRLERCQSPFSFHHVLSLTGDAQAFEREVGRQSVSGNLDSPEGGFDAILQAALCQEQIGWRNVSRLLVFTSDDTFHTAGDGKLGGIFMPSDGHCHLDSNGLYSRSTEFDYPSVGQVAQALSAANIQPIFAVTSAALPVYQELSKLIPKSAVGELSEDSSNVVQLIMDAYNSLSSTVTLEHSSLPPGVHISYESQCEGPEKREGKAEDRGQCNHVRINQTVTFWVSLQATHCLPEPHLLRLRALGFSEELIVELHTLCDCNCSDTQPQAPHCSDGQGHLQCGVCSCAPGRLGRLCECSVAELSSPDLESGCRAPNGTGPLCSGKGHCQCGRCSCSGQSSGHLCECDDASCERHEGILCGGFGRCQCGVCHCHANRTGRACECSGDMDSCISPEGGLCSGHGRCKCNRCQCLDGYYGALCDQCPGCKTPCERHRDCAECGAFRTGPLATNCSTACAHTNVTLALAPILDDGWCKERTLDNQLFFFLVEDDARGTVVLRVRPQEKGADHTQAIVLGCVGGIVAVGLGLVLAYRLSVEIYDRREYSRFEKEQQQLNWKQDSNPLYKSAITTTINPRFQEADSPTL
Protocol: α4β7-K562 Cell Adhesion Assay (α4β7 Mediated Adhesion/MAdCAM-1)
M2 anti-FLAG Antibody Coated 96-well plates (Sigma) were coated for 1 hour at 4° C. with 2-8 μL/well recombinant FLAG-hMAdCAM-1 contained in 100 μL of Dulbecco's PBS, pH 7.4, with 1% BSA and 1 mM Mn^2+ (PBS-BSA-Mn). Plates were washed once with PBS-BSA-Mn. Buffer was removed and compounds to be tested (50 μL) were added at 2× concentration. Stably transfected K562 cells expressing human α4β7 integrin, (50 μL at 2×10^6/mL) that had been labeled with 100 μg/mL carboxymethyl fluorescein diacetate succinimidyl ester (CFDA-SE; Molecular Probes) for 15 min at 37° C. were added to each well and allowed to adhere for 1 h at room temperature. Plates were washed 4× in PBS-BSA-Mn and then cells were lysed for 2 min by addtion of 100 μL of PBS without Ca^2+, Mg^2+ supplemented with 0.1 M NaOH. The plate was read on a 96-well fluorescent plate reader at 485 nm excitation and 530 nm emission.

Balb/c mice = assay: In Vivo Model for Leukocytosis; set-up: species or system mouse; details: bled 1-1.5 h after administration
From the text: In Vivo Model for Leukocytosis
Leukocytosis the increase in circulating white blood cells (leukocytes). This can be brought about by preventing leukocyte binding to integrin counter-receptor adhesion molecules expressed on high endothelial venules. This cell adhesion occurs between immunoglobulin superfamily molecules and integrins. Relevant examples of these paired interactions include Intracellular Adhesion Molecule-1 and AlphaL Beta2 integrin, Vascular Cell Adhesion Molecule-1 and α4β1 integrin, and Mucosal Addressin Cell Adhesion Molecule-1 and α4β7 integrin, respectively.
In this model, a compound that antagonizes these leukocyte-endothelial interactions will cause an increase in circulating leukocytes, defined as leukocytosis, as measured at 1-1.5 h post-administration. This leukocytosis is indicative that normal lymphocyte or leukocyte emigration from the peripheral circulation was prevented. Similar emigration of cells out of the circulation into inflamed tissues is responsible for the progression and maintainance of the inflammatory state. Leukocytosis is an indication that lymphocyte and leukocyte extravasation is prevented, and is predictive of general anti-inflammatory activity.
One week prior to being tested, 7-10 week old female Balb/c mice, n=8 per group, were bled and randomized according to leukocyte counts. One week later, the mice were adminstered test compound orally or subcutaneously and then bled 1-1.5 h after drug administration, approximately 1 h after the peak blood concentration of the compound has occurred. Whole blood, 250-350 microliters, was collected from each mouse into potassium-EDTA […] collection tubes (Becton-Dickenson) and mixed to prevent clotting.
Cell counts and differential counts on the whole blood preparation were performed using an Advia 120 Hematology System (Bayer Diagnostics). Cell counts as total leukocytes and as total lympohcytes were made and compared to counts made from mice dosed with vehicle only. Data were reported as percent of vehicle control for lymphocyte counts and total leukocyte counts.
Statistical analyses were performed using ANOVA with Dunnet's multiple comparison test.

T1 sequence (P05556 21-798, one chain of several): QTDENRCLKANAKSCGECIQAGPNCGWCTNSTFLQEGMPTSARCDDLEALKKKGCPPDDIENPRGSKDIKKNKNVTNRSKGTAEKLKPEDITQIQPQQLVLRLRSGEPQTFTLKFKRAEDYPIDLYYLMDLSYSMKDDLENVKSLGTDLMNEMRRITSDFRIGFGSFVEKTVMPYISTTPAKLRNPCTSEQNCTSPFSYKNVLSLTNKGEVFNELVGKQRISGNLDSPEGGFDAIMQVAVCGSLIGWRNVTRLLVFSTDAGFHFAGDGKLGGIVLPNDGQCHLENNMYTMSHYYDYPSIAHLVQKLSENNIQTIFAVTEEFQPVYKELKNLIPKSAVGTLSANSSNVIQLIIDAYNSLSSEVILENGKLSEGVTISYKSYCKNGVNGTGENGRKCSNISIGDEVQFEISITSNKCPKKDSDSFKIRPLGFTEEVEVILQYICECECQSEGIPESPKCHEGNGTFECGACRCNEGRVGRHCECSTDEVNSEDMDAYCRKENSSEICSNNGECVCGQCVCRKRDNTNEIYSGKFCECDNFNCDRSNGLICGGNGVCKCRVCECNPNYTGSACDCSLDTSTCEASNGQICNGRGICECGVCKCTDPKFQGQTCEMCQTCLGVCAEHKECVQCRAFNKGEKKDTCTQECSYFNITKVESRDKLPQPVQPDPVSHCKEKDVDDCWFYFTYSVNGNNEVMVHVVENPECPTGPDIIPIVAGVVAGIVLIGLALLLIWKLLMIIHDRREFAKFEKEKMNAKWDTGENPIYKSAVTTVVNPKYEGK

| pIC50 (α4β1) | pIC50 (human α4β7 integrin) | Compound | also measured |
| --- | --- | --- | --- |
| < 5.30 | 5.54 | COc1cnn(C)c(=O)c1-c1ccc(C[C@H](NC(=O)N(C)CC(C)C)C(=O)OCCO)cc1 [Cpd 21, 2-(3-Isobutyl-3-methyl-ureido)-3-[4-(5-methoxy-2-methyl-3-oxo-2,3-dihydro-pyridazin-4-yl)-phenyl]-propionic acid 2-hydroxy-ethyl ester] | Lymphoycte Counts % of Vehicle Control (Balb/c mice; 3 mg/kg po): 148.1 % of Vehicle Control; Total Leukocyte Count % of Vehicle Control (Balb/c mice; 3 mg/kg po): 121.9 % of Vehicle Control; Lymphoycte Counts % of Vehicle Control (Balb/c mice; 10 mg/kg po): 156.8 % of Vehicle Control; Total Leukocyte Count % of Vehicle Control (Balb/c mice; 10 mg/kg po): 118.7 % of Vehicle Control; Lymphoycte Counts % of Vehicle Control (Balb/c mice; 30 mg/kg po): 189.6 % of Vehicle Control; Total Leukocyte Count % of Vehicle Control (Balb/c mice; 30 mg/kg po): 131.0 % of Vehicle Control |
| < 5.30 | 6.24 | COc1cnn(C)c(=O)c1-c1ccc(C[C@H](NC(=O)N(Nc2ccccc2)c2ccccc2)C(=O)O)cc1 [Cpd 46] |  |
| < 5.30 | 6.51 | COc1cnn(CCO)c(=O)c1-c1ccc(C[C@H](NC(=O)NC2CCCCC2)C(=O)O)cc1 [Cpd 3] |  |
| < 5.30 | 6.51 | COc1cnn(C)c(=O)c1-c1ccc(C[C@H](NC(=O)N(CCO)Cc2ccccc2)C(=O)O)cc1 [Cpd 15] |  |
| 5.38 | 7.43 | COc1cnn(C)c(=O)c1-c1ccc(C[C@H](NC(=O)N(C)c2ccccc2C(F)(F)F)C(=O)O)cc1 [Cpd 52] |  |
| < 5.30 | 6.89 | COc1cnn(C)c(=O)c1-c1ccc(C[C@H](NC(=O)N2c3ccc(F)cc3CCC2C)C(=O)O)cc1 (mixture of isomers) [Cpd 53] |  |
| < 5.30 | 6.67 | COc1cnn(C)c(=O)c1-c1ccc(C[C@H](NC(=O)N(CC(C)C)c2ccccc2)C(=O)O)cc1 [Cpd 41] |  |
| 5.76 | 7.77 | COc1cnn(C)c(=O)c1-c1ccc(C[C@H](NC(=O)N(C)CC(C)C)C(=O)O)cc1 [Cpd 13] | Lymphoycte Counts % of Vehicle Control (Balb/c mice; 3 mg/kg sc): 84.4 % of Vehicle Control; Total Leukocyte Count % of Vehicle Control (Balb/c mice; 3 mg/kg sc): 84.4 % of Vehicle Control; Lymphoycte Counts % of Vehicle Control (Balb/c mice; 10 mg/kg sc): 133.6 % of Vehicle Control; Total Leukocyte Count % of Vehicle Control (Balb/c mice; 10 mg/kg sc): 133.5 % of Vehicle Control; Lymphoycte Counts % of Vehicle Control (Balb/c mice; 30 mg/kg sc): 154.3 % of Vehicle Control; Total Leukocyte Count % of Vehicle Control (Balb/c mice; 30 mg/kg sc): 149.5 % of Vehicle Control |
| < 5.30 | 7.17 | COc1cnn(C)c(=O)c1-c1ccc(C[C@H](NC(=O)N(Cc2ccccc2)c2ccccc2)C(=O)O)cc1 [Cpd 48] |  |
| < 5.30 | 6.01 | COc1cnn(C)c(=O)c1-c1ccc(C[C@H](NC(=O)N2CCC[C@@H]2CNc2ccccc2)C(=O)O)cc1 [Cpd 38] |  |
| < 5.30 | 6.47 | COc1cnn(C)c(=O)c1-c1ccc(CC(NC(=O)N2CCCC2CO)C(=O)O)cc1 (stereo not drawn) [Cpd 8, 2-[(2-Hydroxymethyl-pyrrolidine-1-carbonyl)-amino]-3-[4-(5-methoxy-2-methyl-3-oxo-2,3-dihydro-pyridazin-4-yl)-phenyl]-propionic acid] |  |
| < 5.30 | 6.06 | COc1cnn(C)c(=O)c1-c1ccc(C[C@H](NC(=O)N(C)c2ccccn2)C(=O)O)cc1 [Cpd 54] |  |
| < 5.30 | 6.87 | COc1cnn(C)c(=O)c1-c1ccc(C[C@H](NC(=O)N(C2CC2)C2CCN(C)CC2)C(=O)O)cc1 [Cpd 22] |  |
| < 5.30 | 6.41 | COc1cnn(C)c(=O)c1-c1ccc(C[C@H](NC(=O)N2c3ccccc3CC2C)C(=O)O)cc1 (mixture of isomers) [Cpd 49] |  |
| < 5.30 | 7.04 | COc1cnn(C)c(=O)c1-c1ccc(C[C@H](NC(=O)N(c2ccccc2)C(C)C)C(=O)O)cc1 [Cpd 42] |  |
